Converted amounts (≈) assume the structure as drawn.
How the values were obtained:
Format in all cases: functional
Enterococcus faecium [1] = experiment: In vitro antibacterial activity against vancomycin-resistant Enterococcus faecium 2006 (VRE.2)
[2] = system: Staphylococcus epidermidis; experiment: In vitro antibacterial activity against Staphylococcus epidermidisMR 887E (S. e. MR)
Staphylococcus aureus [3] = experiment: In vitro antibacterial activity against methicillin-resistant Staphylococcus aureus 241 (MRSA)
Enterococcus faecium [4] = experiment: In vitro antibacterial activity against vancomycin-resistant Enterococcus faecium 2164 (VRE.3)
Enterococcus faecium [5] = experiment: In vitro antibacterial activity against vancomycin-resistant Enterococcus faecium (VRE.1)
Staphylococcus aureus [6] = experiment: In vitro antibacterial activity against Staphylococcus aureus 29213A (S.a.3)
Staphylococcus aureus [7] = experiment: In vitro antibacterial activity against Staphylococcus aureus 6538p (S.a.1)
Staphylococcus aureus [8] = experiment: In vitro antibacterial activity against Staphylococcus aureus 77 (S.a.2)
Enterococcus faecalis [9] = experiment: In vitro antibacterial activity against Enterococcus faecalis EFS008 (E.f.2)
[10] = system: Staphylococcus epidermidis; experiment: In vitro antibacterial activity against Staphylococcus epidermidis Q004 (S.e.1)
Enterococcus faecalis [11] = experiment: In vitro antibacterial activity against Enterococcus faecalis 29212A (E.f.1)

Row | Compound | MIC (Enterococcus faecium [1]) [µg/mL] | MIC [2] [µg/mL] | MIC (Staphylococcus aureus [3]) [µg/mL] | MIC (Enterococcus faecium [4]) [µg/mL] | MIC (Enterococcus faecium [5]) [µg/mL] | MIC (Staphylococcus aureus [6]) [µg/mL] | MIC (Staphylococcus aureus [7]) [µg/mL] | MIC (Staphylococcus aureus [8]) [µg/mL] | MIC (Enterococcus faecalis [9]) [µg/mL] | MIC [10] [µg/mL] | MIC (Enterococcus faecalis [11]) [µg/mL]
1 | CC(=O)NC[C@H]1CN(c2ccc(N3CC=C(c4conc4Cl)CC3)c(F)c2)C(=O)O1 | 8 (≈ 18.4 µM) | 8 (≈ 18.4 µM) | 2 (≈ 4.6 µM) | 8 (≈ 18.4 µM) | 8 (≈ 18.4 µM) | 8 (≈ 18.4 µM) | 2 (≈ 4.6 µM) | 2 (≈ 4.6 µM) | 8 (≈ 18.4 µM) | 2 (≈ 4.6 µM) | 8 (≈ 18.4 µM)
2 | CC(=O)NC[C@H]1CN(c2ccc(N3CC=C(c4oncc4C(=O)N(C)C)CC3)c(F)c2)C(=O)O1 | 8 (≈ 17 µM) | 8 (≈ 17 µM) | 8 (≈ 17 µM) | 8 (≈ 17 µM) | 8 (≈ 17 µM) | 4 (≈ 8.48 µM) | 4 (≈ 8.48 µM) | 8 (≈ 17 µM) | 8 (≈ 17 µM) | 2 (≈ 4.24 µM) | 8 (≈ 17 µM)
3 | CC(=O)NC[C@H]1CN(c2ccc(N3CC=C(c4oncc4C)CC3)c(F)c2)C(=O)O1 | 2 (≈ 4.83 µM) | 2 (≈ 4.83 µM) | 2 (≈ 4.83 µM) | 2 (≈ 4.83 µM) | 2 (≈ 4.83 µM) | 4 (≈ 9.65 µM) | 2 (≈ 4.83 µM) | 1 (≈ 2.41 µM) | 4 (≈ 9.65 µM) | 1 (≈ 2.41 µM) | 4 (≈ 9.65 µM)
4 | CC(=O)NC[C@H]1CN(c2ccc(N3CC=C(c4conc4C#N)CC3)c(F)c2)C(=O)O1 | 2 (≈ 4.7 µM) | 4 (≈ 9.4 µM) | 1 (≈ 2.35 µM) | 2 (≈ 4.7 µM) | 2 (≈ 4.7 µM) | 2 (≈ 4.7 µM) | 1 (≈ 2.35 µM) | 1 (≈ 2.35 µM) | 2 (≈ 4.7 µM) | 0.5 (≈ 1.18 µM) | 2 (≈ 4.7 µM)
5 | CC(=O)NC[C@H]1CN(c2ccc(N3CC=C(c4oncc4C(F)(F)F)CC3)c(F)c2)C(=O)O1 | > 64 | > 64 |  | > 64 | > 64 | > 64 | > 64 | > 64 | > 64 | > 64 | > 64
6 | CC(=O)NC[C@H]1CN(c2ccc(N3CC=C(c4oncc4Cl)CC3)c(F)c2)C(=O)O1 | 32 (≈ 73.6 µM) | 16 (≈ 36.8 µM) | 4 (≈ 9.2 µM) | 32 (≈ 73.6 µM) | 32 (≈ 73.6 µM) | 32 (≈ 73.6 µM) | 8 (≈ 18.4 µM) | 8 (≈ 18.4 µM) | 64 (≈ 147 µM) | 8 (≈ 18.4 µM) | 64 (≈ 147 µM)
7 | CCOC(=O)c1cnoc1C1=CCN(c2ccc(N3C[C@H](CNC(C)=O)OC3=O)cc2F)CC1 | 8 (≈ 16.9 µM) | 16 (≈ 33.9 µM) | 4 (≈ 8.47 µM) | 8 (≈ 16.9 µM) | 16 (≈ 33.9 µM) | 4 (≈ 8.47 µM) | 8 (≈ 16.9 µM) | 4 (≈ 8.47 µM) | 8 (≈ 16.9 µM) | 4 (≈ 8.47 µM) | 16 (≈ 33.9 µM)
8 | CC(=O)NC[C@H]1CN(c2ccc(N3CC=C(c4oncc4C#N)CC3)c(F)c2)C(=O)O1 | 4 (≈ 9.4 µM) | 4 (≈ 9.4 µM) | 2 (≈ 4.7 µM) | 4 (≈ 9.4 µM) | 4 (≈ 9.4 µM) | 4 (≈ 9.4 µM) | 2 (≈ 4.7 µM) | 1 (≈ 2.35 µM) | 4 (≈ 9.4 µM) | 1 (≈ 2.35 µM) | 4 (≈ 9.4 µM)
9 | CC(=O)NC[C@H]1CN(c2ccc(N3CC=C(c4oncc4C(N)=O)CC3)c(F)c2)C(=O)O1 | 1 (≈ 2.26 µM) | 1 (≈ 2.26 µM) | 0.5 (≈ 1.13 µM) | 1 (≈ 2.26 µM) | 1 (≈ 2.26 µM) | 0.5 (≈ 1.13 µM) | 0.5 (≈ 1.13 µM) | 0.5 (≈ 1.13 µM) | 1 (≈ 2.26 µM) | 0.5 (≈ 1.13 µM) | 1 (≈ 2.26 µM)
10 | CC(=O)NC[C@H]1CN(c2ccc(N3CCOCC3)c(F)c2)C(=O)O1 [LINEZOLID] | 2 (≈ 5.93 µM) | 1 (≈ 2.96 µM) | 0.5 (≈ 1.48 µM) | 2 (≈ 5.93 µM) | 2 (≈ 5.93 µM) |  | 0.5 (≈ 1.48 µM) | 0.5 (≈ 1.48 µM) |  | 0.5 (≈ 1.48 µM) | 
11 | CN[C@H](CC(C)C)C(=O)N[C@H]1C(=O)N[C@@H](CC(N)=O)C(=O)N[C@H]2C(=O)N[C@H]3C(=O)N[C@H](C(=O)N[C@H](C(=O)O)c4cc(O)cc(O)c4-c4cc3ccc4O)[C@H](O)c3ccc(c(Cl)c3)Oc3cc2cc(c3O[C@@H]2O[C@H](CO)[C@@H](O)[C@H](O)[C@H]2O[C@H]2C[C@](C)(N)[C@H](O)[C@H](C)O2)Oc2ccc(cc2Cl)[C@H]1O [VANCOMYCIN] | > 64 |  |  | > 64 | 64 (≈ 44.2 µM) |  |  |  |  |  | 
